What all share (test): growth of human tumour cells (NCI), 48 h
Experiment [1] concerns NCI-H460 lung.
The subject of experiment [2] is CAKI-1 renal.
Experiment [3] deals with SNB-19 CNS.
Experiment [4] deals with SN12C renal.
Experiment [5] has as its system UACC-62 melanoma.
The test system of experiment [6] is UO-31 renal.
Experiment [7] concerns MDA-N.
The test system of experiment [8] is TK-10 renal.
Experiment [9] relates to A549 NSCLC.
In experiment [10] the test system is UACC-257 melanoma.
Experiment [11] has as its system LOX IMVI melanoma.
Experiment [12] relates to HS 578T breast.

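Briefly, cells in 96-well plates were exposed to five compound concentrations for 48 h, and endpoints were estimated by linear interpolation. Here, GI50 denotes the concentration required for 50% inhibition of growth. At the TGI there is no net growth.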

For the compound `CNc1ncnc2c1nc(NC1CCCC1)n2C1OC(CO)C(O)C1O` (stereo not given), the TGI in experiment [1], in experiment [2], in [3], in [4], in experiment [5] and in experiment [6] was more than 100 µM throughout. Further, the TGI in experiment [7], in experiment [8] and in [9] was more than 100 µM in each case.
Take `O=C(/C(=C\I)c1ccccc1)c1ccccc1`: the TGI in [10] was 15.8 µM; in experiment [1], 27.3 µM; in [2], 3.07 µM; in experiment [3], 23.1 µM; in experiment [4], 34.9 µM; in experiment [5], 12 µM. For the same compound, the TGI in [11] amounted to 29.9 µM; in [12], 19.1 µM; in [6], 20.2 µM; in experiment [8], 29.8 µM; in experiment [9], 49.2 µM.
As for `O=C(O)/C=C/c1c[nH]c(=O)[nH]c1=O`, the TGI in experiment [10], in experiment [1], in [2], in [3], in [4] and in [5] was more than 500 µM each time. The TGI in [11], in experiment [6] and in experiment [9] was more than 500 µM in each case. Also, in experiment [4], the GI50 is more than 500 µM.
As to `COc1cc(-c2c3c(cc4c2OCO4)[C@@H](Nc2ccc(-c4ccc(-c5ccc(N[C@@H]6c7cc8c(cc7C(c7cc(OC)c(O)c(OC)c7)[C@H]7C(=O)OC[C@H]67)OCO8)cc5)cc4)cc2)[C@H]2COC(=O)[C@@H]2C3)cc(OC)c1O` (stereo not given in full), the TGI is 80.4 µM in experiment [10]; 10.7 µM in [1]; 8.8 µM in [2]; 12.5 µM in experiment [3]; 24.4 µM in experiment [4]; more than 100 µM in experiment [11]. Further, the TGI was more than 100 µM in experiment [12], 13.1 µM in experiment [6], 8.59 µM in [8] and 12.6 µM in experiment [9].
Take `C=C(Cl)C(Cl)(CCl)CCC(Br)C(C)(C)Br` (stereo not given): the TGI in experiment [2], in experiment [3], in experiment [4], in experiment [5], in [6] and in experiment [7] was more than 10 µM each time. Further, the TGI in [8] and in experiment [9] was more than 10 µM each time.
For `Clc1ccc(C[P+](c2ccccc2)(c2ccccc2)c2ccccc2)cc1Cl`, the TGI in experiment [10] was 8.32 µM; in [1], 12.8 µM; in [2] it was 11 µM; in [3] it was 10.6 µM; in [4], 15.3 µM; in experiment [5] it was 9.33 µM. The TGI in [11] amounted to 11.7 µM; in [8], 17.6 µM; in experiment [9] it was 19.9 µM.
With `NC(=S)N1N=C2c3ccccc3CC[C@H]2[C@@H]1c1ccc(Cl)cc1`, the TGI in experiment [10] is 95 µM; in experiment [1] it was more than 100 µM; in experiment [3] it was more than 100 µM; in [4], more than 100 µM; in experiment [5], more than 100 µM; in [11], more than 100 µM. The TGI is 66.8 µM in [6], more than 100 µM in [8] and more than 100 µM in [9].
For the compound `C=C=CC(NC(=O)c1ccccc1)(C(=O)O)C(F)(F)F` (stereo not given), the TGI in experiment [10], in experiment [1], in [3], in [4], in experiment [11] and in [8] was more than 100 µM each time. In [9], this compound showed a TGI of more than 100 µM.
Turning to `COc1nc2ccc(COc3ccc(C(=O)O)cc3)cc2nc1OC`, the TGI in experiment [10], in [1], in [2], in experiment [3], in [4] and in experiment [5] was more than 100 µM each time. In addition, the TGI in [11], in experiment [6], in experiment [7] and in experiment [9] was more than 100 µM in each case.
Regarding `COc1cc2c(/C=C3/C(=O)Nc4ccc(Cl)cc43)c(Cl)[nH]c2cc1C`, the TGI in [10] was determined as 22.4 µM; in experiment [1] it was 13.9 µM; in experiment [2] it was 14.8 µM; in [3] it was 12.7 µM; in [4], 2.67 µM; in experiment [5], 2.87 µM. In addition, the TGI was found to be 6.25 µM in experiment [11]; 19 µM in [12]; 15.8 µM in [6]; 8.48 µM in experiment [8]; 16.2 µM in experiment [9].
For the compound `C#CCN(Cc1ccc2nc(-c3ccccc3)c(N)nc2c1)c1cc(OC)c(OC)c(OC)c1`, the TGI is 81.1 µM in experiment [1]; more than 100 µM in experiment [3]; more than 100 µM in experiment [4]; 63.7 µM in experiment [5]; 59.3 µM in experiment [11]; 69.3 µM in experiment [6]. Moreover, the TGI in experiment [8] and in [9] was more than 100 µM throughout.
`COc1cc2c(/C=C3/C(=O)N(C)c4ccc(O)cc43)c(Cl)[nH]c2cc1C`: the TGI in [10] was determined as 23.5 µM; in [1], 19.8 µM; in experiment [2], 13.6 µM; in experiment [3] it was 5.35 µM; in [4], 17 µM; in [5] it was 13.6 µM. Further, the TGI in [11] was 17.3 µM; in experiment [12] it was 28.9 µM; in experiment [6], 24.5 µM; in experiment [8], 20.7 µM; in experiment [9], 16.9 µM.
In the case of `C[C@]12CC(c3ccccc3O1)C(C(=O)Nc1nc(C34CC5CC(CC(C5)C3)C4)cs1)C(=O)N2` (stereo not given in full), the TGI in experiment [10], in experiment [1], in [2], in [3], in [4] and in experiment [5] was more than 100 µM each time. The TGI in experiment [11], in experiment [12] and in experiment [9] was more than 100 µM in each case.
Take `O=C(/C=C(\C(=O)c1cccs1)c1cccs1)c1ccc(C(=O)/C=C(\C(=O)c2cccs2)c2cccs2)cc1`: the TGI in experiment [10], in [1], in experiment [2], in experiment [3], in [4] and in experiment [5] was more than 100 µM each time. Also, the TGI in [12], in experiment [6], in [8] and in experiment [9] was more than 100 µM each time.
On to `C[C@H](CCC1SC1(C)C)C1CCC2(C)C3=C(CC[C@]12C)[C@@]1(C)CC[C@H](O)C(C)(C)C1CC3` (stereo not given in full), for which the TGI in [10], in experiment [1], in experiment [2], in experiment [3], in experiment [4] and in experiment [5] was more than 100 µM in each case. Also, the TGI in [11], in [6], in experiment [8] and in experiment [9] was more than 100 µM each time.
On to `O=C(Cn1c(C(=O)c2ccccc2)nc2ccccc21)c1ccccc1`, for which the TGI in experiment [10], in experiment [1], in experiment [2], in experiment [3], in experiment [4] and in [5] was more than 100 µM in each case. In addition, the TGI in [11], in experiment [12], in experiment [6], in experiment [8] and in experiment [9] was more than 100 µM each time.
Consider `CCn1c2ccccc2c2c(-c3ccccc3)cc3c(c21)C(=O)N(c1ccccc1)C3=O`, for which the TGI in experiment [10], in experiment [1], in [2], in experiment [3], in experiment [4] and in experiment [5] was more than 100 µM throughout. The TGI in [11], in [6], in [8] and in experiment [9] was more than 100 µM in each case.
Regarding `Cc1nc2cc(Nc3ccccc3C(=O)O)ccc2s1`, the TGI in [1], in experiment [2], in [3], in [4], in experiment [5] and in experiment [11] was more than 100 µM in each case. For the same compound, the TGI in experiment [6], in experiment [8] and in experiment [9] was more than 100 µM each time.
Regarding `C/C(N=NS(=O)(=O)c1ccc([N+](=O)[O-])cc1)=C1\C=CC=CN1O`, the TGI in experiment [10], in experiment [1], in experiment [2], in experiment [3], in experiment [4] and in experiment [5] was more than 100 µM throughout. The TGI in experiment [6], in [8] and in [9] was more than 100 µM in each case.
For the compound `NC(=O)CC(N=Cc1nc(-c2ccccc2)oc1O)C(=O)O` (stereo not given), the TGI in [10], in experiment [1], in experiment [2], in experiment [3], in experiment [5] and in experiment [11] was more than 100 µM each time. Besides, the TGI in [6], in [8] and in experiment [9] was more than 100 µM each time.

Source of the values: PubChem BioAssay (NCI).
